Measurements: patent US4698355A, “Anti-hypertensive agents” (University of Miami, priority 1979, dated 1987)
Non-standard residues stand in square brackets, D forms with d. Residues, ends and D or L forms follow the SMILES beside them. No end group written: not given here. *: point of attachment. pGlu = O=C1CC[C@@H](C(=O)O)N1; Bz = O=C(c1ccccc1)*

Columns and labels:
ACE = details: cited from earlier work
human urinary ACE = test: ACE activity assay (Benzoyl-GlyHisLeu substrate); type: biochemical; details: 0.05 M Hepes pH 8.0, 37° C.
Excerpt: The role of ACE in the pathogenesis of hypertension has prompted a search for inhibitors of the enzyme that could act as antihypertensive drugs. See for example U.S. Pat. Nos. 3,891,616, 3,947,575, 4,052,511 and 4,053,651. […] 6, 1977, and in scientific articles by Cushman, D. W. et al., Biochemistry 16, 5484 (1977), and by Ondetti, M. et al., Science 196, 441 (1977). […] These factors include the source of enzyme, its purity, the substrate used and its concentration, and the composition of the assay buffer. All I50 data reported herein have been performed with the same assay system and same enzyme (human urinary ACE) and with an approximately 1/2 Km level of substrate and are therefore internally consistent. Discrepancies with data obtained by other workers may be observed. Indeed such discrepancies do exist in the literature, for unknown reasons. See, for example, the I50 values for BPP9a reported by Cushman, D. W., et al., Experientia 29, 1032 (1973) and by Dorer, F. E., et al., Biochim. Biophys. Acta 429, 220 (1976).
ACE activity assay. For most experiments described herein, the enzyme was assayed in 0.05 M Hepes buffer, pH 8.0 containing 0.1 M NaCl and 0.75 M Na2 SO4. […] Enzyme was diluted in the above buffer such that 40 μl buffered enzyme was capable of hydrolyzing 13% of substrate in a 15-minute incubation at 37° C. […]

angiotensin I [1] = test: Intravenous effectiveness: blood pressure response to angiotensin I in anesthetized rats; type: in vivo, rat; details: intravenous 2 μmol/kg
Procedure: (§1) Rats (210-290 g body weight) were fasted overnight and then anesthetized with intraperitoneal pentobarbital, 50-60 mg/kg. Tracheostomy was performed and the animals were ventilated mechanically. A cannula was inserted into a femoral vein for injection of angiotensin I, and a second cannula was inserted into a common carotid artery for direct measurement of arterial blood pressure. Heparin, 1,000 units, was injected via the femoral vein to prevent coagulation. Blood pressure was measured with a pressure transducer connected to a polygraph. The rats were injected with […] of angiotensin I in 20 μl of 0.9 g % NaCl; an amount of angiotensin I sufficient to raise mean arterial blood pressure by 38 mm Hg. After the responsiveness of a given rat to angiotensin I was established, the named compound at 20 μmol/kg (drug dissolved in 0.15 ml of H2 O plus 10 μl of 1 N NaHCO3), was given via a stomach tube. At timed intervals, the effects of 400 ng/kg of angiotensin I on mean arterial blood pressure were tested. Results are shown below:
Anesthetized rats were prepared as described in Example 18. After the control reponse to 400 ng/kg angiotensin I was measured for a given rat, the named compound was administered via a femoral vein. The dose was 2 μmol/kg of the named compound in 15 μl 0.01 N sodium bicarbonate. The results are shown as percent of the control response.

angiotensin I [2] = test: Oral effectiveness: blood pressure response to angiotensin I in anesthetized rats; type: in vivo, rat; details: oral 20 μmol/kg
Procedure: as §1, with “tested.” for “tested. Results are shown below:”

Compound: C[C@H](NC(=O)[C@H](Cc1c[nH]c2ccccc12)NC(=O)[C@H](CCCCN)NC(=O)[C@@H]1CCC(=O)N1)C(=O)N1CCC[C@H]1C(=O)O [BPP5a, <GluLysTrpAlaPro] ([pGlu]KWAP-OH)
- Km relative to angiotensin I (competitive substrate) (ACE): lower Km than angiotensin I

Compound: RPPGFSPFR [bradykinin]
- Km relative to angiotensin I (competitive substrate) (ACE): lower Km than angiotensin I

Compound: CC(C)C[C@H](NC(=O)[C@H](Cc1cnc[nH]1)NC(=O)CNC(=O)c1ccccc1)C(=O)O [Benzoyl-GlyHisLeu] (Bz-Gly-His-Leu-OH)
- Km (human urinary ACE): ~200 µM

Compound: C[C@H](CSC(=O)[C@H](Cc1ccccc1)NC(=O)[C@@H]1CCC(=O)N1)C(=O)N1CCC[C@H]1C(=O)O [Example 15, N^α - [3-(Pyro-L-glutamyl-L-phenylalanylthio)-2-D-methylpropanoyl]-L-proline]
- Blood pressure response to 400 ng/kg angiotensin I (angiotensin I [1]; 5 min): 18 % of control
- Blood pressure response to 400 ng/kg angiotensin I (angiotensin I [1]; 11 min): 21 % of control
- Blood pressure response to 400 ng/kg angiotensin I (angiotensin I [1]; 14 min): 24 % of control
- Blood pressure response to 400 ng/kg angiotensin I (angiotensin I [1]; 17 min): 29 % of control
- Blood pressure response to 400 ng/kg angiotensin I (angiotensin I [1]; 20 min): 34 % of control
- Blood pressure response to 400 ng/kg angiotensin I (angiotensin I [1]; 24 min): 42 % of control
- Blood pressure response to 400 ng/kg angiotensin I (angiotensin I [1]; 32 min): 47 % of control
- Blood pressure response to 400 ng/kg angiotensin I (angiotensin I [1]; 43 min): 53 % of control
- Blood pressure response to 400 ng/kg angiotensin I (angiotensin I [1]; 49 min): 58 % of control
- Blood pressure response to 400 ng/kg angiotensin I (angiotensin I [1]; 56 min): 61 % of control
- Blood pressure response to 400 ng/kg angiotensin I (angiotensin I [1]; 71 min): 71 % of control
- Blood pressure response to 400 ng/kg angiotensin I (angiotensin I [1]; 76 min): 68 % of control
- Blood pressure response to 400 ng/kg angiotensin I (angiotensin I [1]; 88 min): 76 % of control
- Blood pressure response to 400 ng/kg angiotensin I (angiotensin I [1]; 99 min): 76 % of control
- Blood pressure response to 400 ng/kg angiotensin I (angiotensin I [1]; 109 min): 74 % of control
- Blood pressure response to 400 ng/kg angiotensin I (angiotensin I [1]; 125 min): 84 % of control
- Blood pressure response to 400 ng/kg angiotensin I (angiotensin I [1]; +1/2 min (30 sec.)): 8 % of control
- Blood pressure response to 400 ng/kg of Angiotensin I (angiotensin I [2]; 5 min): 66 % of Control
- Blood pressure response to 400 ng/kg of Angiotensin I (angiotensin I [2]; 15 min): 26 % of Control
- Blood pressure response to 400 ng/kg of Angiotensin I (angiotensin I [2]; 18 min): 26 % of Control
- Blood pressure response to 400 ng/kg of Angiotensin I (angiotensin I [2]; 21 min): 21 % of Control
- Blood pressure response to 400 ng/kg of Angiotensin I (angiotensin I [2]; 25 min): 21 % of Control
- Blood pressure response to 400 ng/kg of Angiotensin I (angiotensin I [2]; 29 min): 24 % of Control
- Blood pressure response to 400 ng/kg of Angiotensin I (angiotensin I [2]; 39 min): 18 % of Control
- Blood pressure response to 400 ng/kg of Angiotensin I (angiotensin I [2]; 44 min): 16 % of Control
- Blood pressure response to 400 ng/kg of Angiotensin I (angiotensin I [2]; 49 min): 16 % of Control
- Blood pressure response to 400 ng/kg of Angiotensin I (angiotensin I [2]; 54 min): 18 % of Control
- Blood pressure response to 400 ng/kg of Angiotensin I (angiotensin I [2]; 60 min): 18 % of Control
- Blood pressure response to 400 ng/kg of Angiotensin I (angiotensin I [2]; 74 min): 18 % of Control
- Blood pressure response to 400 ng/kg of Angiotensin I (angiotensin I [2]; 86 min): 21 % of Control
- Blood pressure response to 400 ng/kg of Angiotensin I (angiotensin I [2]; 110 min): 21 % of Control
- Blood pressure response to 400 ng/kg of Angiotensin I (angiotensin I [2]; 120 min): 26 % of Control
- Blood pressure response to 400 ng/kg of Angiotensin I (angiotensin I [2]; 132 min): 26 % of Control
- Blood pressure response to 400 ng/kg of Angiotensin I (angiotensin I [2]; 142 min): 26 % of Control
- Blood pressure response to 400 ng/kg of Angiotensin I (angiotensin I [2]; +1 min): 53 % of Control
